Measurements reported in patent US20250186391A1, “ORAL COMPLEMENT FACTOR D INHIBITORS” (BioCryst Pharmaceuticals, Inc., priority 2019, published 2025).

What follows are compounds tested against Factor D (Homo sapiens (Human), UniProt P00746) (assay: Factor D esterolytic assay). Settings: Z-Lys-SBzl substrate, 100 mM HEPES, 500 mM NaCl, pH 7.5, 10% DMSO; tested a minimum of three times; read-out: Measured Ki (IC50) Value for Compounds: IC50.
Type: biochemical
Procedure: The IC50 value of a compound (i.e., the concentration of the compound that inhibits 50% of the enzymatic activity) was calculated according to the procedure reported in U.S. Pat. No. 6,653,340 B1, e.g., column 74 (incorporated by reference).
Specifically, the compounds were dissolved in a stock solution of DMSO at 10.0 or 100 mM. A portion of this stock solution was added to assay buffer in a final volume of 50 μL. Controls included buffer alone and enzyme solutions to which DMSO was added. Substrate was added to the reaction wells immediately or after incubation at room temperature. The reaction rates were measured spectrophotometrically by the generation of product at 405 nm for 600 sec. Background absorbance at 690 nm was measured and subtracted from the absorbance at 405 nm for each well.
The reaction rate for enzyme alone was compared to the rate of enzyme in the presence of inhibitor and the percent inhibition was calculated as shown below: […]
An established esterolytic assay for the measurement of Factor D activity and inhibition of Factor D activity was used (Kam, C. M.; McRae, B. J.; Harper, J. W.; Niemann, M. A.; Volanakis, J. E.; Powers, J. C. Human complement proteins D, C2, and B Active site mapping with peptide thioester substrates. J Biol. Chem. 1987, 262, 3444-3451). For this assay Z-Lys-SBzl, 1.29 mM (Kim, S.; Narayana, S. V. L; Volanakis, J. E. Mutational analysis of the substrate binding site of human complement Factor D. Biochemistry. 1994, 33, 14393-14399.) was used as the substrate for Factor D ([…]). Hydrolysis of this compound by Factor D liberated a free sulfhydryl group which is then reacted with 5,5′-dithiobis(2nitrobenzoic acid) producing an intense yellow color (Habeeb, A. F. S. A. Reaction of protein sulfhydryl groups with Ellman's Reagent. Methods in Enzymol. 1976, 25, 457-464.). The assays were performed in 96 well microtiter plates and rates of hydrolysis were monitored at 405 nm on a Biotek Synergy H1 plate reader. Hydrolysis rates were reported as change in mOD/min. The assay was conducted in 100 mM HEPES, 500 mM NaCl, pH 7.5 containing 10% DMSO in a final volume of 50 μL per well.
An IC50, a compound concentration which inhibits 50% of the enzymatic activity, was calculated. Compounds in the examples were tested a minimum of three times.

Chain of Factor D (P00746 26-253): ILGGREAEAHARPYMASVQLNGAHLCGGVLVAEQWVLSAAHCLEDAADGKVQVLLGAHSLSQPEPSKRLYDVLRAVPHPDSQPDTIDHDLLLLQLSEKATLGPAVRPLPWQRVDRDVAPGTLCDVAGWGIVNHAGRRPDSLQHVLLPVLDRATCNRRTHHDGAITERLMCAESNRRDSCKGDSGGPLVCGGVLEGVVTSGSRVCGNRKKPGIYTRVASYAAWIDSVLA

SMILES	IC50 [nM]
N#Cc1ccc(CC(=O)O)c(OCc2coc3ccc(-c4cccc(CN)c4)cc23)c1 [Compound 57d, 2-(2-((5-(3-(aminomethyl)phenyl)benzofuran-3-yl)methoxy)-4-cyanophenyl)acetic acid]	< 1000
COc1ccc(CC(=O)O)c(OCc2c(C(=O)O)sc3ccc(-c4cccc(CN)c4)cc23)c1 [Compound 62c, 5-(3-(aminomethyl)phenyl)-3-((2-(carboxymethyl)-5-methoxyphenoxy)methyl)benzo[b]thiophene-2-carboxylic acid]	< 1000
NCc1cccc(-c2ccc3occ(COc4cc(C(N)=O)ccc4CC(=O)O)c3c2)c1 [Compound 63c, 2-(2-((5-(3-(aminomethyl)phenyl)benzofuran-3-yl)methoxy)-4-carbamoylphenyl)acetic acid]	< 1000
Cc1ccc(S(=O)(=O)n2cc(COc3ccccc3CC(=O)O)c3cc(-c4cccc(CN)c4)ccc32)cc1 [Compound 66f, 2-(2-((5-(3-(aminomethyl)phenyl)-1-tosyl-1H-indol-3-yl)methoxy)phenyl)acetic acid]	< 1000
NCc1cccc(-c2ccc3cnn(Cc4ccccc4CC(=O)O)c3c2)c1 [Compound 67e, 2-(2-((6-(3-(aminomethyl)phenyl)-1H-indazol-1-yl)methyl)phenyl)acetic acid]	< 1000
COc1ccc(CC(=O)O)c(OCc2coc3ccc(-c4ccnc(CN)c4)cc23)c1 [Compound 68e, 2-(2-((5-(2-(aminomethyl)pyridin-4-yl)benzofuran-3-yl)methoxy)-4-methoxyphenyl)acetic acid]	< 1000
COc1cc2occ(COc3ccccc3CC(=O)O)c2cc1-c1cccc(CN)c1 [Compound 69f, 2-(2-((5-(3-(aminomethyl)phenyl)-6-methoxybenzofuran-3-yl)methoxy)phenyl)acetic acid]	< 1000

The remaining lines, values ahead:

IC50 [nM]	SMILES
< 1000	NCc1cccc(-c2ccc3oc(C(=O)O)c(COc4ccccc4CC(=O)O)c3c2)c1 [Compound 55d, 5-(3-(aminomethyl)phenyl)-3-((2-(carboxymethyl)phenoxy)methyl)benzofuran-2-carboxylic acid]
< 1000	NCc1cccc(-c2ccc3sc(C(=O)O)c(COc4ccccc4CC(=O)O)c3c2)c1 [Compound 56d, 5-(3-(aminomethyl)phenyl)-3-((2-(carboxymethyl)phenoxy)methyl)benzo[b]thiophene-2-carboxylic acid]
< 1000	NCc1cccc(-c2cc(-c3cccc(CN)c3)c3oc(C(=O)O)c(COc4ccccc4CC(=O)O)c3c2)c1 [Compound 58f, 5,7-bis(3-(aminomethyl)phenyl)-3-((2-(carboxymethyl)phenoxy)methyl)benzofuran-2-carboxylic acid]
< 1000	NCc1cccc(-c2cc([N+](=O)[O-])c3oc(C(=O)O)c(COc4ccccc4CC(=O)O)c3c2)c1 [Compound 59g, 5-(3-(aminomethyl)phenyl)-3-((2-(carboxymethyl)phenoxy)methyl)-7-nitrobenzofuran-2-carboxylic acid]
< 1000	Cn1cc(-c2cc(-c3cccc(CN)c3)cc3c(COc4ccccc4CC(=O)O)c(C(=O)O)oc23)cn1 [Compound 60d, 5-(3-(aminomethyl)phenyl)-3-((2-(carboxymethyl)phenoxy)methyl)-7-(1-methyl-1H-pyrazol-4-yl)benzofuran-2-carboxylic acid]
< 1000	COc1ccc(CC(=O)O)c(OCc2c(C(=O)O)oc3ccc(-c4cccc(CN)c4)cc23)c1 [Compound 61d, 5-(3-(aminomethyl)phenyl)-3-((2-(carboxymethyl)-5-methoxyphenoxy)methyl)benzofuran-2-carboxylic acid]
< 1000	NCc1cccc(-c2ccc3oc(C(=O)NC4CC4)c(COc4ccccc4CC(=O)O)c3c2)c1 [Compound 64h, 2-(2-((5-(3-(aminomethyl)phenyl)-2-(cyclopropylcarbamoyl)benzofuran-3-yl)methoxy)phenyl)acetic acid]
< 1000	NCc1cccc(-c2ccc3ncc(COc4ccccc4CC(=O)O)n3c2)c1 [Compound 65e, 2-(2-((6-(3-(aminomethyl)phenyl)imidazo[1,2-a]pyridin-3-yl)methoxy)phenyl)acetic acid]
